According to patent publication US8497278B2, “Imidazo[1,2-a]pyridine compounds” (priority 2008, dated 2013):
Marks after values point to notes of the source that are not given here.

How the values were obtained:
[1] = system: Wistar rats; test: Vogel conflict test; assay type: in vivo; conditions: rat, 60 min before test, 3 minute test
Method: Vogel Conflict Test Protocol: The Vogel conflict test is an animal model of anxiety described by Vogel et al. (1971). In this test, water deprived animals are placed in a cage with free access to a drinking bottle. Whenever the animal drinks, an electric shock is administered. Animals punished during drinking rapidly cease to drink. Anxiolytic drugs decrease the effect of punishment and increase the number of shocks accepted by the rats in this conflict situation. Male Wistar rats were used in these studies. Rats were deprived of water for approximately 48 hours and then placed individually into a transparent Plexiglas enclosure with a floor consisting of stainless steel bars spaced 1 cm apart. The back wall of the enclosure was made of opaque Plexiglas thereby concealing the observer from the experimental animal. In the center of the opposite wall, 5 cm above the floor, a metal water spout protruded into the cage and was connected to one pole of a shock generator. The other pole of the shock generator was connected to the metal grid floor. The rat is left to explore until it finds the water spout. Then, every time it drinks, it receives an electric shock (1.7 mA, 1 sec duration) 2 seconds after it starts drinking The number of punished drinks is counted during a 3 minute test. Ten rats are studied per treatment group. Clobazam (64 mg/kg) was used as the positive control. Compounds of the present invention, vehicle (45% hydroxypropyl beta-cyclodextrin) and clobazam were administered orally to all groups (n=10 […] per group) 60 minutes prior to behavioral testing. All data were analyzed using unpaired Student's t-tests. An effect was considered significance if p<0.05.

[2] = system: rhesus monkeys; test: Rhesus monkey conflict test; assay type: in vivo; conditions: cumulative dosing
Source text: Conflict protocol: The conflict procedure is a well established operant conditioning approach to evaluate anxiolytic-like effects of test compounds. In this procedure, positively-reinforced behavior is suppressed by response-contingent administration of a noxious stimulus (i.e., mild electric shock). Compounds with anxiolytic effects in humans (e.g., benzodiazepines) characteristically increase rates of responding that are suppressed by shock and are referred to as anti-conflict or anxiolytic-like effects. […] In addition to anxiolytic-like effects, conflict procedures also provide an assessment of the ability of the animal to perform operant lever pressing. This is typically assessed by including lever pressing in the absence of the noxious stimulus. Most anxiolytic compounds will decrease rates of responding in the absence of shock at doses higher than those that induce anxiolytic-like effects. The effects contributing to anxiolytic-induced decreases in non-suppressed responding are not well understood, but likely consist of a combination of motor co-ordination deficits and sedative effects.
Adult rhesus monkeys were used in these studies (n=1-4). Weights of the monkeys ranged from 6.2 to 10.5 kg. The animals had been previously trained using the conflict procedure. Animals were maintained at 85-95% of their free-feeding weights by manipulation of food intake. Monkeys were individually housed with water available ad libitum, and maintained on a 12 hour lights-on/12 hour lights-off cycle (lights on at 0600 a.m.). Monkeys received Harlan Teklad diet (15% Primate Diet) as well as supplemental feeding (fruits, vegetables, and commercially available primate treats) daily. They were also given toys and video enrichment when not in an experimental session. Each animal was prepared prior to the study with a chronic indwelling venous catheter for drug delivery. A polyvinyl chloride catheter was implanted in a jugular, femoral or brachial vein under isoflurane anesthesia and aseptic conditions. The proximal end of the catheter terminated above the right atrium, and the distal end was passed subcutaneously to exit in the midscapular region. Experimental sessions began 5-7 days following surgery. Catheters had been implanted approximately 3 months to 1 year prior to the initiation of the study. During experimental sessions, monkeys were seated in primate chairs that were placed in ventilated sound-attenuating chambers. A single response lever was mounted on the wall of the chamber in front of the monkey. Each press of a lever produced an audible click and was recorded as a response via electromechanical equipment, a computer interface, and PC with specialized software. Food pellets could be delivered into a tray located next to the lever. Mild electric shock could be delivered to the bottom of the feet via brass electrodes that were fitted to shoes. Red and green lights mounted above the levers could be illuminated to serve as visual stimuli.
Monkeys were trained under a multiple schedule of food reinforcement adapted from Spealman (1979). A daily session consisted of 4 cycles, each preceded by a 10-min time out period in which all lights in the chamber were off and responding had no programmed consequences. Each cycle consisted of two components, component 1 and 2. Component 1 was signaled by red stimulus lights and consisted of an 18-response schedule (FR18) of food pellet delivery (i.e., the animal receives a food pellet following 18 responses). Component 2, signaled by green stimulus lights, followed immediately and consisted of the FR18 schedule of food delivery combined with a FR20 schedule of foot shock delivery (1.5-3.0 mA, adjusted for each monkey based on individual performance, 0.25 sec duration). Delivery of a food pellet (FR18 schedule) was followed by a 10 sec time out in which responses had no programmed consequences. […]

Clc1ccc(-c2nc3cccnn3c2Cn2cncn2)cc1 [Compound 32, 3-((1H-1,2,4-triazol-1-yl)methyl)-2-(4-chlorophenyl)imidazo[1,2-b]pyridazine]
Number of Shocks Mean ± S.E.M. ([1]; 3 mg/kg PO): 3.8 ± 0.6 | Number of Shocks Mean ± S.E.M. ([1]; 10 mg/kg PO): 3.8 ± 0.7 | Number of Shocks Mean ± S.E.M. ([1]; 30 mg/kg PO): 6.6 ± 2.3 | Non-Suppressed Response Rates Mean ± S.E.M. ([2]; 0.1 mg/kg IV): 2.50 ± 0.29 Responses/Second | Suppressed Response Rates Mean ± S.E.M. ([2]; 0.1 mg/kg IV): 0.03 ± 0.01 Responses/Second | Non-Suppressed Response Rates Mean ± S.E.M. ([2]; 0.3 mg/kg IV): 2.58 ± 0.44 Responses/Second | Suppressed Response Rates Mean ± S.E.M. ([2]; 0.3 mg/kg IV): 0.24 ± 0.17 Responses/Second | Non-Suppressed Response Rates Mean ± S.E.M. ([2]; 1 mg/kg IV): 1.82 ± 0.67 Responses/Second | Suppressed Response Rates Mean ± S.E.M. ([2]; 1 mg/kg IV): 1.1 ± 0.67 Responses/Second | Non-Suppressed Response Rates Mean ± S.E.M. ([2]; 3 mg/kg IV): 1.77 ± 0.64 Responses/Second | Suppressed Response Rates Mean ± S.E.M. ([2]; 3 mg/kg IV): 1.19 ± 0.36 Responses/Second

Cc1ccn(Cc2c(-c3ccc(Cl)cc3)nc3ccccn23)c(=O)n1 [Compound 105, 1-((2-(4-chlorophenyl)imidazo[1,2-a]pyridin-3-yl)methyl)-4-methylpyrimidin-2(1H)-one]
Number of Shocks Mean ± S.E.M. ([1]; 3 mg/kg PO): 5.1 ± 0.6 | Number of Shocks Mean ± S.E.M. ([1]; 10 mg/kg PO): 5.8 ± 0.8 | Number of Shocks Mean ± S.E.M. ([1]; 30 mg/kg PO): 8.2 ± 1.8 | Non-Suppressed Response Rates Mean ± S.E.M. ([2]; 0.1 mg/kg IV): 2.68 ± 0.37 Responses/Second | Suppressed Response Rates Mean ± S.E.M. ([2]; 0.1 mg/kg IV): 0.02 ± 0.01 Responses/Second | Non-Suppressed Response Rates Mean ± S.E.M. ([2]; 0.3 mg/kg IV): 2.68 ± 0.39 Responses/Second | Suppressed Response Rates Mean ± S.E.M. ([2]; 0.3 mg/kg IV): 0.47 ± 0.44 Responses/Second | Non-Suppressed Response Rates Mean ± S.E.M. ([2]; 1 mg/kg IV): 2.78 ± 0.36 Responses/Second | Suppressed Response Rates Mean ± S.E.M. ([2]; 1 mg/kg IV): 0.79 ± 0.45 Responses/Second | Non-Suppressed Response Rates Mean ± S.E.M. ([2]; 3 mg/kg IV): 1.02 ± 0.57 Responses/Second | Suppressed Response Rates Mean ± S.E.M. ([2]; 3 mg/kg IV): 0.46 ± 0.32 Responses/Second

Cn1ncnc1Cc1c(-c2ccc(F)cc2)nc2ccc(F)cn12 [Compound 200, 6-fluoro-2-(4-fluorophenyl)-3-((1-methyl-1H-1,2,4-triazol-5-yl)methyl)imidazo[1,2-a]pyridine]
Number of Shocks Mean ± S.E.M. ([1]; 3 mg/kg PO): 8.4 ± 2.1 | Number of Shocks Mean ± S.E.M. ([1]; 10 mg/kg PO): 8.9 ± 2.3 | Number of Shocks Mean ± S.E.M. ([1]; 30 mg/kg PO): 9.5 ± 2.1 | Non-Suppressed Response Rates Mean ± S.E.M. ([2]; 0.3 mg/kg IV): 3.2 Responses/Second | Suppressed Response Rates Mean ± S.E.M. ([2]; 0.3 mg/kg IV): 0.02 Responses/Second | Non-Suppressed Response Rates Mean ± S.E.M. ([2]; 1 mg/kg IV): 2.9 Responses/Second | Suppressed Response Rates Mean ± S.E.M. ([2]; 1 mg/kg IV): 0.02 Responses/Second | Non-Suppressed Response Rates Mean ± S.E.M. ([2]; 1.8 mg/kg IV): 2.4 Responses/Second | Suppressed Response Rates Mean ± S.E.M. ([2]; 1.8 mg/kg IV): 1.4* Responses/Second | Non-Suppressed Response Rates Mean ± S.E.M. ([2]; 3 mg/kg IV): 3.1 Responses/Second | Suppressed Response Rates Mean ± S.E.M. ([2]; 3 mg/kg IV): 1.2* Responses/Second | Non-Suppressed Response Rates Mean ± S.E.M. ([2]; 5.6 mg/kg IV): 3.3 Responses/Second | Suppressed Response Rates Mean ± S.E.M. ([2]; 5.6 mg/kg IV): 1.9* Responses/Second

Clc1ccc(-c2nc3ccccn3c2Cc2ncn[nH]2)cc1 [Compound 211, 3-((1H-1,2,4-triazol-5-yl)methyl)-2-(4-chlorophenyl)imidazo[1,2-a]pyridine]
Number of Shocks Mean ± S.E.M. ([1]; 3 mg/kg PO): 3.9 ± 0.5 | Number of Shocks Mean ± S.E.M. ([1]; 10 mg/kg PO): 5.3 ± 0.8 | Number of Shocks Mean ± S.E.M. ([1]; 30 mg/kg PO): 5.0 ± 1.1
